Measurements from ChEMBL document CHEMBL1201862, “PubChem BioAssay data set” (2004).
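48-hour exposure; five concentrations; linearly interpolated endpoints. GI50 marks 50% less growth.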 Calls of active or inactive are those of the source. Rule as the data show it: active = GI50 up to about 1.1 µM and inactive = higher.

Experiments:
Test in all cases: NCI-60 cell line screen, 48 h
OVCAR-8 = test system: OVCAR-8
SK-OV-3 = test system: SK-OV-3
A498 = test system: A498
NCI-H460 = test system: NCI-H460
K562 = test system: K562
NCI-H522 = test system: NCI-H522
RPMI-8226 = test system: RPMI-8226
MCF7 = test system: MCF7
HOP-62 = test system: HOP-62
U-251 = test system: U-251
LOX IMVI = test system: LOX IMVI
SF-268 = test system: SF-268
DU-145 = test system: DU-145
MOLT-4 = test system: MOLT-4
HCT-15 = test system: HCT-15
OVCAR-4 = test system: OVCAR-4
M14 = test system: M14
OVCAR-5 = test system: OVCAR-5
ACHN = test system: ACHN
HCC 2998 = test system: HCC 2998

Measured: GI50

O=C(O)CSCc1cccc2ccccc12
> 100 µM: HCT-15
inactive: OVCAR-8 > 100 µM | SK-OV-3 > 100 µM | A498 > 100 µM | NCI-H460 > 100 µM | K562 > 100 µM | NCI-H522 > 100 µM | RPMI-8226 > 100 µM | MCF7 > 100 µM | HOP-62 > 100 µM | U-251 > 100 µM | LOX IMVI > 100 µM | SF-268 > 100 µM | DU-145 > 100 µM | MOLT-4 > 100 µM | OVCAR-4 > 100 µM | M14 > 100 µM | OVCAR-5 > 100 µM | ACHN > 100 µM

COC(CN(C=O)[C@@H](c1ccc(Cl)cc1)c1cc2ccccc2o1)OC
inactive: OVCAR-8 16 µM | A498 18.9 µM | NCI-H460 15.5 µM | K562 24.4 µM | NCI-H522 14.5 µM | RPMI-8226 16 µM | MCF7 15.5 µM | HOP-62 22 µM | U-251 17.3 µM | LOX IMVI 16.3 µM | SF-268 15.3 µM | DU-145 14.8 µM | MOLT-4 17.8 µM | OVCAR-4 19.2 µM | M14 17.3 µM | OVCAR-5 15.8 µM | ACHN 20.8 µM
active: SK-OV-3 0.841 µM
17 µM: HCT-15

CC1=CC(C)(C)NN1C1=NS(=O)(=O)c2ccccc2N1C
89.9 µM: HCT-15
inactive: OVCAR-8 > 100 µM | SK-OV-3 > 100 µM | A498 > 100 µM | NCI-H460 > 100 µM | K562 > 100 µM | NCI-H522 > 100 µM | MCF7 > 100 µM | HOP-62 > 100 µM | U-251 > 100 µM | LOX IMVI > 100 µM | SF-268 > 100 µM | DU-145 > 100 µM | HCC 2998 > 100 µM | MOLT-4 47.9 µM | OVCAR-4 44.3 µM | M14 > 100 µM | OVCAR-5 > 100 µM | ACHN > 100 µM

CN(C)c1nc(NN)c2c(-c3ccccc3)c(-c3ccccc3)oc2n1
inactive: OVCAR-8 > 100 µM | SK-OV-3 > 100 µM | A498 > 100 µM | K562 49 µM | NCI-H522 68.2 µM | RPMI-8226 > 100 µM | MCF7 > 100 µM | U-251 > 100 µM | LOX IMVI > 100 µM | SF-268 89.1 µM | DU-145 > 100 µM | HCC 2998 > 100 µM | MOLT-4 > 100 µM | OVCAR-4 35.1 µM | M14 > 100 µM | OVCAR-5 > 100 µM | ACHN > 100 µM
> 100 µM: HCT-15

Oc1ccc(Cl)cc1-c1nc(S)nc(-c2ccccc2)c1Cl
> 100 µM: HCT-15
inactive: OVCAR-8 > 100 µM | SK-OV-3 > 96.4 µM | A498 51.9 µM | NCI-H460 > 100 µM | K562 > 100 µM | NCI-H522 > 31.6 µM | RPMI-8226 > 100 µM | MCF7 > 100 µM | HOP-62 31.1 µM | U-251 43.2 µM | LOX IMVI > 56.9 µM | SF-268 > 64.3 µM | DU-145 > 70.6 µM | MOLT-4 > 100 µM | OVCAR-4 > 100 µM | M14 > 100 µM | OVCAR-5 > 100 µM | ACHN > 90.8 µM

COc1ccc(OC)c2sc(N3C(=O)/C(=C/Cc4ccco4)N=C3c3ccccc3)nc12
inactive: OVCAR-8 33.5 µM | SK-OV-3 83.4 µM | A498 66.2 µM | NCI-H460 50.1 µM | K562 29.9 µM | RPMI-8226 15.5 µM | MCF7 17.7 µM | HOP-62 43 µM | U-251 22.5 µM | LOX IMVI 25.1 µM | SF-268 34 µM | DU-145 32.4 µM | HCC 2998 > 100 µM | MOLT-4 17.9 µM | OVCAR-4 32 µM | M14 37.6 µM | OVCAR-5 > 100 µM | ACHN 26.7 µM
42.7 µM: HCT-15

COc1ccc(N2C(=O)CC(=O)N(C(=O)COc3ccc(OCC(=O)N4C(=O)CC(=O)N(c5ccc(OC)cc5)C4=S)cc3)C2=S)cc1
48.6 µM: HCT-15
inactive: SK-OV-3 29.2 µM | A498 61.7 µM | NCI-H460 25.7 µM | K562 41.4 µM | NCI-H522 35.5 µM | RPMI-8226 19.6 µM | MCF7 31.1 µM | U-251 37.1 µM | SF-268 35.4 µM | DU-145 49.9 µM | HCC 2998 32.3 µM | MOLT-4 32 µM | OVCAR-4 27 µM | M14 54.5 µM | OVCAR-5 > 100 µM | ACHN 42.1 µM

C[C@@H](NC(=O)[C@@H]1C[C@]1(C)CO)c1cccc2ccccc12
inactive: OVCAR-8 > 100 µM | SK-OV-3 > 100 µM | A498 > 100 µM | NCI-H460 > 100 µM | K562 > 100 µM | RPMI-8226 > 100 µM | MCF7 > 100 µM | HOP-62 > 100 µM | U-251 > 100 µM | SF-268 > 100 µM | DU-145 > 100 µM | HCC 2998 > 100 µM | MOLT-4 > 100 µM | OVCAR-4 > 100 µM | M14 > 100 µM | OVCAR-5 > 100 µM | ACHN > 100 µM
> 100 µM: HCT-15

O=C1/C(=C/c2cc3c(=O)c4ccccc4sc3s2)NC(=S)N1c1ccccc1
> 100 µM: HCT-15
inactive: OVCAR-8 > 100 µM | A498 > 100 µM | NCI-H460 > 100 µM | K562 40.6 µM | NCI-H522 > 100 µM | RPMI-8226 > 100 µM | MCF7 > 100 µM | HOP-62 5.01 µM | U-251 21 µM | LOX IMVI > 100 µM | SF-268 55 µM | DU-145 > 100 µM | HCC 2998 > 100 µM | MOLT-4 24.5 µM | OVCAR-4 > 100 µM | OVCAR-5 > 100 µM | ACHN > 100 µM

COc1cc(C2c3cc4c(cc3OC(C)(O)C2C)OCO4)cc(OC)c1OC (stereo not given)
inactive: A498 13.9 µM | SF-268 2.69 µM | OVCAR-5 > 100 µM
0.4 µM: HCT-15
active: OVCAR-8 0.217 µM | NCI-H460 0.406 µM | K562 0.274 µM | NCI-H522 0.235 µM | RPMI-8226 0.237 µM | MCF7 0.375 µM | HOP-62 0.335 µM | U-251 0.443 µM | LOX IMVI 0.692 µM | DU-145 0.456 µM | HCC 2998 0.646 µM | MOLT-4 0.513 µM | ACHN 0.938 µM

C/C(=C\c1ccccn1)c1ccccn1
> 100 µM: HCT-15
inactive: OVCAR-8 > 100 µM | SK-OV-3 > 100 µM | A498 > 100 µM | NCI-H460 > 100 µM | K562 > 100 µM | NCI-H522 > 100 µM | RPMI-8226 > 100 µM | MCF7 > 100 µM | HOP-62 > 100 µM | U-251 > 100 µM | SF-268 > 100 µM | DU-145 > 100 µM | HCC 2998 > 100 µM | MOLT-4 > 100 µM | OVCAR-4 > 100 µM | M14 > 100 µM | OVCAR-5 > 100 µM | ACHN > 100 µM

CC(C)=C/C=C1/CS(=O)(=O)C=C1C
inactive: OVCAR-8 > 100 µM | SK-OV-3 > 100 µM | A498 > 100 µM | K562 > 100 µM | NCI-H522 > 100 µM | RPMI-8226 > 100 µM | MCF7 > 100 µM | HOP-62 > 100 µM | U-251 > 100 µM | LOX IMVI > 100 µM | DU-145 > 100 µM | HCC 2998 > 100 µM | MOLT-4 > 100 µM | M14 > 100 µM | OVCAR-5 > 100 µM | ACHN > 100 µM
47.4 µM: HCT-15

CN1c2ccccc2S(=O)(=O)n2c(COc3ccccc3)nnc21
> 100 µM: HCT-15
inactive: OVCAR-8 > 100 µM | SK-OV-3 > 100 µM | A498 57.8 µM | NCI-H460 > 100 µM | K562 > 100 µM | NCI-H522 56.8 µM | MCF7 > 100 µM | HOP-62 35.4 µM | U-251 > 100 µM | LOX IMVI > 100 µM | SF-268 > 100 µM | DU-145 > 100 µM | HCC 2998 > 100 µM | MOLT-4 > 100 µM | OVCAR-4 > 100 µM | M14 > 100 µM | OVCAR-5 > 100 µM | ACHN > 100 µM

CCCCc1ccc(Nc2nc3ncnc-3c[nH]2)cc1
inactive: OVCAR-8 17.8 µM | SK-OV-3 18.4 µM | A498 26.1 µM | K562 33.3 µM | NCI-H522 21.6 µM | RPMI-8226 14.8 µM | MCF7 29.6 µM | HOP-62 17.7 µM | U-251 22.1 µM | LOX IMVI 20.5 µM | SF-268 16.3 µM | DU-145 15.9 µM | HCC 2998 16.8 µM | MOLT-4 14.3 µM | OVCAR-4 25.3 µM | M14 18.6 µM | OVCAR-5 37.2 µM | ACHN 15.2 µM
17.5 µM: HCT-15

O=c1oc2cc(O)ccc2cc1-c1nc2ccccc2s1
active: MOLT-4 0.678 µM
inactive: OVCAR-8 34.7 µM | SK-OV-3 38.8 µM | A498 19.6 µM | NCI-H460 21.2 µM | K562 7.41 µM | RPMI-8226 11.5 µM | MCF7 23.9 µM | HOP-62 20.9 µM | U-251 23 µM | LOX IMVI 25.9 µM | DU-145 29.2 µM | HCC 2998 27.5 µM | OVCAR-4 28.2 µM | M14 24.5 µM | OVCAR-5 30.8 µM | ACHN 22.5 µM
20.1 µM: HCT-15
